Measured values published in patent publication US7521540B2, “CYR61 compositions and methods” (Munin Corporation, priority 1996, dated 2009).

Tests used:
Limb mesenchymal cells [1] = details: 50 μg/ml (200 nM), literature; cited from earlier work
Limb mesenchymal cells [2] = assay: Limb bud mesenchymal cell attachment; format: cell-based, mouse; details: within 1 hour of plating
Description: Cyr61, fibronectin (Gibco), or tenascin (Gibco) were diluted in 0.1% protease-free bovine serum albumin (BSA) in PBS with 0.5 mM PMSF, to a final concentrations of 10 or 50 μg/ml. A 10 μl drop/well was placed in a non-tissue culture treated 24-well plate (Corning), and incubated at room temperature for 2 hours. The wells were blocked with 1% BSA in PBS for 1 hour at room temperature, and rinsed with serum-free MEM (Modified Eagle's Medium). Limb mesenchymal cells, suspended at 5×10^5 cell/ml in serum-free MEM, were added at a volume of 400 μl/well, and incubated at 37° C., 5% CO2 for 1 or 3 hours. At each time point, the cell suspension was removed, the wells were rinsed with MEM and the remaining adherent cells were photographed.

αllbβ3 = target: T1, αllbβ3 (Homo sapiens, UniProt P05106+P08514); assay: Solid-phase binding assay with purified integrin
T1 construct: from tissue; host or cells: outdated human platelets
Description: In these experiments, activated and unactivated αllbβ3 were purified from platelet lysates. Activated αllbβ3 was purified by RGD affinity chromatography, as described (Knezevic et al., J. Biol. Chem. 271:16416-16421 [1996]). Briefly, outdated human platelets were isolated by differential centrifugation and solubilized in lysis buffer (10 mM HEPES, pH 7.4, 0.15 M NaCl, containing 1 mM CaCl2, 1 mM MgCl2 100 μM leupeptin, 1 mM phenylmethylsulfonyl fluoride, 10 mM-ethylmaleimide, and 50 mM octylglucoside). The octylglucoside extract was incubated with 1 ml GRGDSPK-coupled Sepharose 4B overnight at 4° C. After washing with 15 ml column buffer (same as lysis buffer except it contained 25 mM octylglucoside), bound αllbβ3 was eluted with 1.7 mM H12 (2 ml) in column buffer. The H12 eluate was applied to a Sephacryl S-300 High Resolution column (1.5×95 cm), and αllbβ3 was eluted with 10 mM HEPES, pH 7.4, 0.15 M NaCl, 1 mM CaCl2, 1 mM MgCl2 and 25 mM octylglucoside.
Unactivated αllbβ3 was isolated by the method of Fitzgerald et al., Anal. Biochem. 151:169-177 (1985), with slight modifications. The flow-through fraction of the GRGDSPK-Sepharose column was applied to a concanavalin A-Sepharose 4B column (1×20 cm). Unbound proteins were washed with 50 ml column buffer, and bound αllbβ3 was then eluted with 100 mM mannose dissolved in column buffer. Fractions containing αllbβ3 were further purified on a Sephacryl S-300 High Resolution column
To perform the solid-phase binding assay, purified αllbβ3 was added to wells coated with either Cyr61 or Fisp12 (mCTGF) in the presence or absence of inhibitors and binding was allowed to proceed for 3 hours at 37° C. Unbound receptor was removed and the wells wee washed twice with HEPES-Tyrode's Buffer. The binding of purified αllbβ3 to Cyr61 or Fisp12/mCTGF immobilized onto microtiter wells was detected with ^125I-mAb15.

platelets = assay: Platelet adhesion assay; format: cell-based, human
Description: Microtiter wells were coated with purified recombinant Fisp12/mCTGF or Cyr61, and the adhesion of isolated platelets to these proteins was detected with ^125I-mAb15, an anti-β3 monoclonal antibody (Frelinger et al., J. Biol. Chem 265:6346-6352 [1990]). Platelets were obtained from venous blood drawn from healthy donors and collected into acid-citrate-dextrose (ACD). Washed platelets were prepared by diffenential centrifugation as described (Kinlough-Rathbone et al. Thromb. Haemostas 2:291-308 [1997]), and finally resuspended in HEPES-Tyrode's buffer (5 mM HEPES, pH 7.35, 1 mM MgCl2, 1 mM CaCl2, 135 mM NaCl, 2.7 mM KCl, 11.9 mM NaHCO3, 1 mg/ml dextrose and 3.5 mg/ml BSA). The platelet concentration was adjusted to […].
Microtiter wells (Immulon 2 removawell strips, Dynex Technologies, Inc.) were coated with Cyr61, Fisp12/mCTGF, or fibrinogen (25 μg/ml, 50 μl/well) incubated overnight at 22° C., and then blocked with 3% BSA at 37° C. for 2 hours. Washed platelets were added to the wells (100 μl/well) in the presence and absence of platelet agonists and incubated at 37° C. for 30 minutes. The wells were washed with HEPES-Tyrode's buffer and adherent platelets were detected with ^125I-mAb15, an anti-β3 monoclonal antibody. Exposure to the labeled antibody ([…], 50 μl/well) proceeded for 1 hour at 22° C. After extensive washing with HEPES-Tyrode's buffer, bound radioactivity was determined by γ-counting. In inhibition studies, washed platelets were pre-incubated with blocking peptides or antibodies at 37° C. for 15 minutes prior to addition to microtiter wells.
The anti-β3 antibody was radioiodinated with carrier-free Na^125I (Amersham Corp.) using the IODO-BEADS iodination reagent (Pierce) to a specific activity of approximately 2 μCi/μg. […] As controls, BSA- and fibrinogen-coated (KabiVitrum Inc.) wells were also used. Initially, the adhesion of unactivated versus activated platelets to immobilized Fisp12/mCTGF and Cyr61 was compared. To ensure that plateltes were not activated during the washing procedures, PGl2 (100 nM), which inhibits activation by raising platelet cAMP levels, was added to the platelet suspensions. […]

HUVE cells = assay: Fisp12 cell attachment assay, HUVE cells; format: cell-based, human; details: EDTA added to culture medium; cell type not stated
Description: The capacity of Fisp12 to affect cell adhesion was also investigated. Fisp12 cell attachment assays were performed essentially as described (Oliver et al., [1989]). 96-well immunological plates were coated for 16 hours at 4° C. with 20 μg/ml Cyr61, Fisp12 or fibronectim (Gibco BRL) in PBS containing 0.1 mg/ml BSA and blocked with 10 mg/ml BSA for 1 hour at room temperature. HUVE cells were plated at 10^4 cells/well in F12K media with 10% FBS (Hyclone Laboratories, Inc., Logan, Utah); NIH 3T3 fibroblasts were plated at 3×10^4 cells/well and Mv1Lu cells were plated at 5×10^4 cells/well in minimal essential medium (MEM) with 10% FBS. After 1 hour incubation cells were fixed, stained with methylene blue and quantified as described (Oliver et al., [1989]). Cell spreading was examined on cells plated on 100 mm polystyrene petri dishes coated with 2.5 ml of a 20 μg/ml solution of Cyr61, Fisp12 or fibronectin. 10^7 cells were plated on each dish and cell spreading was analyzed 90 minutes after plating by microscopy at 100× magnification.

[3] = system: 1064SK primary human foreskin fibroblasts; assay: Fibroblast adhesion assay (methylene blue, A620); format: cell-based
Description: The ability of Cyr61 to mediate cell adhesion in normal fibroblasts was investigated. Microtiter wells were coated with purified recombinant Cyr61 protein, and 1064SK primary human foreskin fibroblasts were allowed to adhere under serum-free conditions. […] 50 μl cell suspensions were plated on microtiter wells coated with varying concentrations (0.5-5.0 μg/ml) of Cyr61 protein. After incubation at 37° C. for 30 minutes, adherent cells were fixed and stained with methylene blue.
In another experiment, microtiter wells were coated with either BSA, Cyr61 (2 μg/ml), or vitronectin (VN; 0.5 μg/ml) and blocked with affinity-purified anti-Cyr61 antibodies for one hour at 37° C. before 1064SK cells were plated.
The effects of divalent cations in cell adhesion to Cyr61 was also investigated. […] Data are means from triplicate determinations. […] Inhibition by Ca^2+ is characteristic of adhesion through some members of the β1 family of integrins, including receptors that bind type I collagen, laminin, and vitronectin (integrins α2β1, α6β1, and αVβ1) in fibroblasts, as well as the lymphocyte-specific integrin αLβ2.
The effects of RGD peptides on Cyr61-mediated fibroblast binding was tested by plating cells in wells coated with Cyr61 (2 μg/ml). Type I collagen (2 μg/ml) or vitronectin (0.5 μg/ml), 2 mM GRGDSP or GRGESP peptide was then added.
Cells were also pre-incubated with 40 μg/ml monoclonal antibodies against the integrin α5 or the integrin αV subunits at room temperature for 30 minutes, then plated on wells coated with Cyr61 (2 μg/ml), vitronectin (0.5 μg/ml) or fibronectin (FN, 1 μg/ml). […] The data are means, representative of three experiments.
The 1064 SK cells were also analyzed using the monoclonal antibody JBIA, which binds the β1 integrin subunit. Cells were pre-incubated with the antibody (50 μg/ml) before plating on microtiter wells coated with Cyr61 (2 μg/ml), Type I collagen (2 μg/ml), or vitronectin (0.5 μg/ml). […] Data are means, representative of three experiments.
To identify the specific β1 integrin that mediates fibroblast adhesion to Cyr61, the inhibitory effects of function-blocking monoclonal antibodies were tested against various integrin α subunits. […] The data are means, representative of at least three experiments.

αVβ3 integrin = target: T2, αVβ3 integrin (Homo sapiens, UniProt P05106+P06756); assay: Integrin binding assay (ligand-receptor ELISA)
T2 construct: αVβ3 integrin purification from HUVE cell lysates was done as described in Pytela et al; endogenous in cells; host or cells: HUVE cells
T2 sequence (P06756 31-889 limits assumed): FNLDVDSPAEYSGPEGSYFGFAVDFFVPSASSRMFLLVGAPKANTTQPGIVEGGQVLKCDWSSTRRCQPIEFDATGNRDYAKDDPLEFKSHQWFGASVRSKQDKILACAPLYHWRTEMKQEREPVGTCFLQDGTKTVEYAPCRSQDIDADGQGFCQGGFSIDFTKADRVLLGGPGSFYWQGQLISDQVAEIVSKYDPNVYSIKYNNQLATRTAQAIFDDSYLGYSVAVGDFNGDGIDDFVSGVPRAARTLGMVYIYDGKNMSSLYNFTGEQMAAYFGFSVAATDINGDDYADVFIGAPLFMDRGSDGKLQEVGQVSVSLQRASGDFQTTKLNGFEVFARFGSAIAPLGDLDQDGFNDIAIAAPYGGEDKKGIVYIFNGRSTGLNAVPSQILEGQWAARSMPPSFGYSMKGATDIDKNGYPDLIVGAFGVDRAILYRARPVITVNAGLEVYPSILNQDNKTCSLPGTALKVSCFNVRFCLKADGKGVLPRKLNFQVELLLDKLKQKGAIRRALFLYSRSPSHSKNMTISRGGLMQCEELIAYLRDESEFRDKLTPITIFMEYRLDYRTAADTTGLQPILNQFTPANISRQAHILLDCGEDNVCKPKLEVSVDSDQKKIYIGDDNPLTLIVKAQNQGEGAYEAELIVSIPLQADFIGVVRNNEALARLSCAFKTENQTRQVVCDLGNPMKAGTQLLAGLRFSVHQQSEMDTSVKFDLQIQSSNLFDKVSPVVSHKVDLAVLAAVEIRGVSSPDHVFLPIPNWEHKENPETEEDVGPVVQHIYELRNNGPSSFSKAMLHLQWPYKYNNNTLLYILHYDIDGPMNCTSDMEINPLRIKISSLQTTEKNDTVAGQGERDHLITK
T2 sequence (P06756 891-1048 partner limits assumed): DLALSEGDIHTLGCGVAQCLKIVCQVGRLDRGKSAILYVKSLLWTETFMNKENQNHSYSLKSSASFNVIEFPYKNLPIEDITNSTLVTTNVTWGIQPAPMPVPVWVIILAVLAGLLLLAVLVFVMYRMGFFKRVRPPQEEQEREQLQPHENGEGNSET
T2 sequence (P05106 27-788): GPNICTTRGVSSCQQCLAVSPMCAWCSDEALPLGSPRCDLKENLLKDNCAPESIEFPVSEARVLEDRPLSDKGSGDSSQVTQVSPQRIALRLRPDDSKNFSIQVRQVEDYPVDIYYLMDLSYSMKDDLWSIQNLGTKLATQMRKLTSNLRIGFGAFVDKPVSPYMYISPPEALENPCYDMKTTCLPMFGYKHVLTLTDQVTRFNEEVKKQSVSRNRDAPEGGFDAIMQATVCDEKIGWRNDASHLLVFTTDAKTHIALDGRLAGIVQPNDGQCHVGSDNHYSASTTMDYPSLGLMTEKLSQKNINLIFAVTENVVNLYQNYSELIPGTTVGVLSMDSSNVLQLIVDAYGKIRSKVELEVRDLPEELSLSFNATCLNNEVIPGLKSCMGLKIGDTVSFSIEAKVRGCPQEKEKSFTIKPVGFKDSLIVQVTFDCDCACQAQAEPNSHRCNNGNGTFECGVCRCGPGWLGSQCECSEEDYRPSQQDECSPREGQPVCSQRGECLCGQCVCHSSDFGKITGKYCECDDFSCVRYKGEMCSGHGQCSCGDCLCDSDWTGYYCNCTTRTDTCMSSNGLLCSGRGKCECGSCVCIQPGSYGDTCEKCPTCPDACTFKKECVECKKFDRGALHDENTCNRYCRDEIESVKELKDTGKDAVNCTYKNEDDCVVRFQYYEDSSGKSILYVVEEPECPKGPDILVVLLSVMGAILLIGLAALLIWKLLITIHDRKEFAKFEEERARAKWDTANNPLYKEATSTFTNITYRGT
Description: αVβ3 integrin purification from HUVE cell lysates was done as described in Pytela et al., Meth. Enzynmol., 144:475-489 (1987). Briefly, 10^8 cells were lysed in 1 ml of PBS containing 1 mM CaCl2, 1 mM MgCl2, 0.5 mM PMSF and 100 mM octylglucoside. The lysate was passed four times through a 0.5 ml column containing RGDSPK Sepharose (prepared from the cyanogen bromide activated Sepharose CL 4B as described in Lam, S. C-T., J. Biol. Chem., 267:5649-5655 (1992). The column was washed with 10 ml of the lysis buffer and the bound protein was eluted with 2 ml of the same buffer containing 1 mM RGDS peptide at room temperature. The αVβ3 integrin was dialyzed against PBS containing 1 mM CaCl2, 1 mM MgCl2, 5 mM octylglucoside and 0.1 mM PMSF with three changes of the dialysis buffer to remove the RGDS peptide. The protein was stored in aliquots at −70° C. The purity of the integrin was determined by SDS-PAGE under non-reducing conditions, followed by silver staining.
The integrin binding assay was developed in accordance with the disclosures in Brooks et al., Cell 85:683-693 (1996), and Lam, S. C-T (1992). Approximately 50 ng of the integrin in a total volume of 50 μl were added per well of 96-well immunological Pro-Bind plates (Falcon) and incubated overnight at 4° C. Non-specific sites were blocked with 20 mg/ml BSA in the same buffer and washed four times in that buffer. Treated plates were incubated with 1 μg/ml Cyr61 or 0.1 μg/ml vitronectin for 3 hours at room temperature. […] The final dilution of the LM609 ascites fluid was 1:200. Bound proteins were detected by specific polyclonal antisera (anti-Cyr61 antiserum was diluted 1:500 and anti-vitronectin antiserum was diluted 1:1000 in PBS containing 1 mM CaCl2, 1 mM MgCl2, and 5 mg/ml BSA) followed by a secondary antibody-horseradish peroxidase conjugate (1:20000 in the same buffer). […] Horseradish peroxidase (HRP) was detected with an HRP immunoassay kit (Bio-Rad Laboratories). The colorimetric reaction was developed for 15-30 minutes at room temperature, stopped by the addition of H2SO4, and the absorbance at 450 nm was measured. […]

[4] = EDTA 5 mM, RGDS 0.5 mM, LM609 ascites 1:200

Molecule	effect of agent on activated αllbβ3 binding to Fisp12/mCTGF and Cyr61 (αllbβ3)	effect of agent on activated platelet adhesion to Cyr61 and Fisp12/mCTGF (platelets)	effect of agent on adhesion of ADP-activated platelets to fibrinogen (platelets)	also measured
tenascin: ECM protein (Gibco)	–	–	–	increase of chondrogenesis in micromass cultures (Limb mesenchymal cells [1]): 3 fold; attachment morphology of limb mesenchymal cells (Limb mesenchymal cells [2]): adhered as clusters of rounded cells
H-HHLGGAKQAGDV-OH [H12]	effectively inhibited	inhibited platelet adhesion to Cyr61 and Fisp12/mCTGF	completely inhibited	–
O=C(O)CN(CCN(CC(=O)O)CC(=O)O)CC(=O)O [EDTA, Ethylenediamine tetraacetic acid]	–	completely abolished platelet adhesion to both proteins	completely inhibited	effect of agent on Fisp12-mediated cell attachment (HUVE cells): inhibited; 1064SK adhesion to Cyr61-coated wells with agent ([3]; Cyr61 2 μg/ml, agent at the level stated in the block, Mg2+ 5.0 mM after EDTA): about 0.12 A620; 1064SK adhesion to Type I collagen-coated wells with agent ([3]; Type I collagen 2 μg/ml): 0.10 A620; 1064SK adhesion to vitronectin-coated wells with agent ([3]; vitronectin 0.5 μg/ml): 0.05 A620
vitronectin: Human plasma vitronectin, serum spreading factor	–	–	–	binding to immobilized αVβ3 integrin (αVβ3 integrin; 1 μg/ml Cyr61 or 0.1 μg/ml vitronectin): bound to the immobilized integrin; inhibition by anti-α6 antibody of binding mediated by the coated protein ([3]; anti-α6 20 μg/ml): 9%
RGDS	specifically blocked	–	completely inhibited	effect of agent on Cyr61 interaction with αVβ3 (αVβ3 integrin; [4]): inhibited; effect of agent on vitronectin interaction with αVβ3 (αVβ3 integrin; [4]): inhibited
echistatin	effectively inhibited	completely blocked platelet adhesion to both proteins	completely inhibited	–
